Assay results taken from US11471422B2, “Stealth, targeted nanoparticles (STN) for oral drug delivery” (priority 2014, dated 2022).
Like-named read-outs stand apart in the source and are kept apart here.

Legend:
Details in all cases: in vivo
[1] = Percentage bioavailability vs time profile of Nutraceutical 1 from coated STN (FIG. 6)
[2] = Percentage cumulative bioavailability vs time profile of two antibiotics from coated STN (FIG. 4)
[3] = Percentage bioavailability vs time profile of anticancer drug from coated STN (FIG. 5)
From the text: FIG. 5: Percentage Bioavailability vs time profile of anticancer drug (docetaxel) from coated STN indicating >90% release after 9 hr against conventional oral form with <10% bioavailability

COC1=C(OC)C(=O)C(C/C=C(\C)CC/C=C(\C)CC/C=C(\C)CC/C=C(\C)CC/C=C(\C)CC/C=C(\C)CC/C=C(\C)CC/C=C(\C)CC/C=C(\C)CCC=C(C)C)=C(C)C1=O [Coenzyme Q 10]
bioavailability at 6 hrs ([1]; oral, from coated STN, at 6 hrs): > 80%
bioavailability ([1]; conventional formulations): < 15%

CO/N=C(\C(=O)N[C@@H]1C(=O)N2C(C(=O)O)=C(CSc3nc(=O)c(=O)[nH]n3C)CS[C@H]12)c1csc(N)n1 [ceftriaxone]
bioavailability at 7 hr ([2]; po): > 100%

CC(=O)O[C@@]12CO[C@@H]1C[C@H](O)[C@@]1(C)C(=O)[C@H](O)C3=C(C)[C@@H](OC(=O)[C@H](O)[C@@H](NC(=O)OC(C)(C)C)c4ccccc4)C[C@@](O)([C@@H](OC(=O)c4ccccc4)[C@H]21)C3(C)C [docetaxel]
bioavailability at 9 hr ([3]; oral, from coated STN, after 9 hr (printed as release)): > 90%
bioavailability ([3]; conventional oral form): < 10%

CC1(C)[C@H](C(=O)O)N2C(=O)C[C@H]2S1(=O)=O [sulbactam]
bioavailability at 7 hr ([2]; from coated STN, STN oral delivery, at 7 hr, read-out: Percentage cumulative bioavailability): > 100%
